Each structure is given as a SMILES string.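 Step 1: Grow cells in 96-well plates. Step 2: Expose to compound for 48 hours at 5 concentrations. Step 3: Interpolate endpoints linearly; if unreached, use highest concentration. The concentration for 50% growth inhibition is given as GI50. TGI is the concentration that stops growth completely.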 A value given as a limit tells only on which side of the number the result lay.

Common to all, as to assay: NCI tumour cell line growth inhibition, 48 h
Experiment [1] relates to 786-0 renal.
For experiment [2], the system named is ACHN renal.
The test system of experiment [3] is IGROV1 ovarian.
Experiment [4] concerns M14 melanoma.
In experiment [5] the test system is MOLT-4 leukemia.
Experiment [6] relates to RPMI-8226 leukemia.
Experiment [7] relates to SN12C renal.
Experiment [8] has as its system SK-MEL-2 melanoma.
For experiment [9], the system named is NCI/ADR-RES ovarian.
Experiment [10] relates to T-47D breast.

Regarding `Cc1cn(C2C=CC(=O)C(C)O2)c(=O)[nH]c1=O` (centres undefined), the TGI in [1] is 32.2 µM; in experiment [2], 31.3 µM; in [3], 34.4 µM; in experiment [4], 29.7 µM; in experiment [5], 40.9 µM; in [6], 47.9 µM. In addition, the TGI in experiment [7] turned out to be 29.8 µM.

As to `COc1cc(NCC(C#N)C#N)ccc1N=Nc1ccc([N+](=O)[O-])cc1`, the TGI in experiment [1], in experiment [2], in [3], in experiment [4], in experiment [5] and in experiment [6] was above 100 µM each time. In addition, the TGI in [8] and in experiment [7] was above 100 µM in each case.

On to `Cn1cc2ccccc2c1-c1nc(F)nc(Oc2ccc3c(c2)CC[C@@H]2C3CC[C@]3(C)C(O)CCC23)n1` (some centres undefined), for which the TGI stood at 30.5 µM in experiment [1]; 34.1 µM in experiment [2]; 30.8 µM in experiment [3]; 30.1 µM in [4]; 65.7 µM in [5]; 36.1 µM in experiment [8]. The compound also gave a TGI in experiment [7] of 33.8 µM.

Turning to `CSC(=S)N(C)NC(=O)c1cccc(C(=O)NN(C)C(=S)SC)n1`, the TGI is 91.8 µM in [1]; above 100 µM in [2]; 49.9 µM in experiment [3]; above 100 µM in experiment [4]; above 100 µM in experiment [5]; above 100 µM in [6]. Also, the TGI in experiment [7] turned out to be 92 µM.

For `O=C(N/C(=C\c1ccc([N+](=O)[O-])cc1)c1nc2[nH]c(=S)[nH]c(=O)c2[nH]1)c1ccccc1`, the TGI in experiment [1], in experiment [2], in experiment [3], in experiment [4], in [5] and in experiment [8] was above 100 µM throughout. The compound also displayed a TGI in [7] above 100 µM.

Regarding `COc1cc(C2[C@H]3C(=O)N(c4ccc(Cc5ccc(N6C(=O)[C@@H]7ON(c8ccccc8)C(c8cc(OC)c(OC)c(OC)c8)[C@@H]7C6=O)cc5)cc4)C(=O)[C@H]3ON2c2ccccc2)cc(OC)c1OC` (some centres undefined), the TGI in [1] was above 100 µM; in experiment [2], above 100 µM; in experiment [3] it was above 100 µM; in experiment [4] it was 48.6 µM; in [5], above 100 µM; in experiment [6] it was above 100 µM. Also, the TGI in [8] and in experiment [7] was above 100 µM throughout.

For `COC1=NN2C(OC)(c3ccccc3)c3c(-c4ccccc4)sc(-c4ccccc4)c3C2(c2ccccc2)S1` (centres undefined), the TGI in experiment [1] was above 100 µM; in experiment [2], above 100 µM; in experiment [3] it was above 100 µM; in experiment [4], above 10 µM; in experiment [5], above 100 µM; in experiment [8], above 100 µM. Besides, the TGI in experiment [7] was above 100 µM.

On to `CSc1nc2c(nc(N)n2C2OCC(O)C(O)C2O)c(=O)[nH]1` (centres undefined), for which the TGI in [1], in experiment [2], in experiment [3], in experiment [4], in [5] and in experiment [7] was above 100 µM in each case.

Consider `CC(=O)OCCC/C(=C\c1ccc2ccccc2c1)[N+](=O)[O-]`, for which the GI50 is 1.81 µM in experiment [1]; 1.89 µM in experiment [2]; 1.89 µM in [3]; 1.58 µM in experiment [4]; 4.87 µM in experiment [5]; 2.69 µM in experiment [9]. Besides, the figures for the GI50 in experiment [6], in [8] and in experiment [7] were 1.55 µM, 1.71 µM and 1.54 µM, respectively. The TGI was 3.35 µM in experiment [1]; 3.68 µM in experiment [2]; 3.98 µM in experiment [3]; 3.21 µM in experiment [4]; above 100 µM in [5]; 8.67 µM in experiment [9]. The TGI in experiment [6] is 3.72 µM; in experiment [8], 3.62 µM; in experiment [7], 3.32 µM.

`CC1OC(OC2C(OC3C[C@@]4(C)C(C[C@H](O)[C@H]5[C@H](C6(C)CCC(C(C)(C)O)O6)CCC54C)[C@]4(C)CC[C@@H](O)C(C)(C)C34)OC(CO)C(O)C2O)C(O)C(O)C1O` (some centres undefined) (tested in a mixture with another compound): the TGI in experiment [1], in [2], in [3], in experiment [4], in [5] and in [6] was above 100 µM throughout. In addition, the TGI in [8], in experiment [7] and in experiment [10] was above 100 µM each time.

`CC(C)C(/C=C/c1ccccc1)=N\NC(=O)N/N=C(/C=C/c1ccccc1)C(C)C`: the TGI is 41.9 µM in experiment [1]; above 100 µM in [2]; above 100 µM in [3]; above 100 µM in experiment [4]; 54.3 µM in experiment [5]; above 100 µM in experiment [6]. The figures for the TGI in experiment [8] and in experiment [7] were 52 µM and 33.2 µM, respectively.

Turning to `CCC[CH2][Sn]1([CH2]CCC)[O]C(=O)C[S]1`, the GI50 was 1.49 µM in [1]; 1.64 µM in experiment [2]; 1.86 µM in experiment [3]; 2.05 µM in experiment [4]; 1.39 µM in [5]; 0.455 µM in [6]. The GI50 in experiment [8] was 0.975 µM; in experiment [7], 1.91 µM. Besides, the TGI was 2.83 µM in [1]; 3.04 µM in experiment [2]; 4.16 µM in experiment [3]; 4.43 µM in experiment [4]; 5.46 µM in experiment [5]; 3.57 µM in experiment [6]. Further, the results for the TGI in experiment [8] and in [7] were 2.33 µM and 5.09 µM, respectively.

Take `CC1(C)CCc2cc3c(cc2O1)OC(C)(C)C1c2c(ccc4c2CCC(C)(C)O4)OC31` (centres undefined): the TGI in experiment [1], in [2], in experiment [3], in experiment [4], in experiment [5] and in [6] was above 100 µM throughout. Moreover, the TGI in experiment [8] and in experiment [7] was above 100 µM throughout.

`O=C1c2cnccc2Cc2cccc3c2N1c1ccccc1S3`: the TGI in experiment [1] was 97.8 µM; in [2], 73.9 µM; in experiment [3] it was 98.9 µM; in experiment [4] it was 58.8 µM; in experiment [5] it was above 100 µM; in experiment [6], 88.1 µM. Moreover, the TGI is 32.5 µM in experiment [8] and above 100 µM in experiment [7].

Values taken from PubChem BioAssay (NCI).
